Earlier results on three molecules are cited in EP2662403B1, “Stabilizing resin formulation of halogen-containing polymers” (Reagens S.p.A., priority 2012, dated 2013).

The conditions of the data set: indication of the basicity of the polyalkylpiperidine in the formulation, no method or source given.

Where two headings read alike, the source gives them in different places.

On to `CCCCN(c1nc(NCCCN(CCN(CCCNc2nc(N(CCCC)C3CC(C)(C)N(C)C(C)(C)C3)nc(N(CCCC)C3CC(C)(C)N(C)C(C)(C)C3)n2)c2nc(N(CCCC)C3CC(C)(C)N(C)C(C)(C)C3)nc(N(CCCC)C3CC(C)(C)N(C)C(C)(C)C3)n2)c2nc(N(CCCC)C3CC(C)(C)N(C)C(C)(C)C3)nc(N(CCCC)C3CC(C)(C)N(C)C(C)(C)C3)n2)nc(N(CCCC)C2CC(C)(C)N(C)C(C)(C)C2)n1)C1CC(C)(C)N(C)C(C)(C)C1` [Chimassorb 119], for which the pKb (Table 11) is recorded as 5.5-8.5.

As to `CN1C(C)(C)CC(OC(=O)CCCCCCCCC(=O)OC2CC(C)(C)N(C)C(C)(C)C2)CC1(C)C` [Tinuvin 765, bis(1,2,2,6,6-pentamethyl-4-piperidyl)sebacate], the pKb (Table 11) is 5.5-8.5.

For `CC1(C)CC(OC(=O)CCCCCCCCC(=O)OC2CC(C)(C)NC(C)(C)C2)CC(C)(C)N1` [Tinuvin 770, bis(2,2,6,6,-tetramethyl-4-piperidyl)sebacate], the pKb is, setting by setting: (Table 9) 4.3-7.4; (Table 10) 4.3-7.4; (Table 11) 4.3-7.4; (Table 12) 4.3-7.4.
